“And” between values parts separate entries of the source, which are not always exact repeats. Identical values can stand only once.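 Cultured in 96-well plates, cells were exposed to test compound for 48 hours across five concentrations. GI50 = concentration required for 50% inhibition of growth. TGI: total growth inhibition.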 Bounds are passed on as bounds.

The subject of the first experiment is HCC-2998 colon. The experiment can be described thus: inhibition of tumour cell growth, NCI panel, 48 h.
For `CCN1C(=O)c2ccc3c4c(ccc(c24)C1=O)C(=O)N(CCCNCc1ccccc1OC)C3=O`, the GI50 is 0.632 µM and the TGI came out at 1.89 µM.
In the case of `O=C(/C=C/c1ccccc1)Nc1ncc(Cc2ccccc2Cl)s1`, the GI50 is 0.361 µM and the TGI is greater than 100 µM.
Taken in the same sequence, the figures for `CN(c1ccc(NC(=O)Nc2c(Cl)cccc2Cl)cc1)c1ccnc(Nc2cccc(CS(C)(=O)=O)c2)n1` were 4.78 µM and 16.8 µM.
Regarding `CCCCCCCCCCCCCCCCCCOC[C@H](COP(=O)(O)O[C@H]1[C@H](O)[C@@H](O)[C@H](O)C[C@H]1O)OC`, the GI50 is 24.2 µM and 6.97 µM; the TGI is > 100 µM and 20.5 µM.
Turning to `CN(C)C/C=C/C(=O)Nc1ccc(C(=O)N[C@@]2(C)CCC[C@@H](Nc3ncc(Cl)c(-c4c[nH]c5ccccc45)n3)C2)nc1`, the GI50 was less than 0.01 µM and the TGI worked out at 0.164 µM.
In the case of `COc1ccc2c(c1)C(=O)CCc1cc(OC)c(OC)c(OC)c1-2`, the GI50 is less than 0.01 µM.
Take `CCN(CC)CCNC(Cc1ccccc1)c1ccc(OCc2ccccc2)cc1` (stereo unspecified): the GI50 is 5.17 µM and the TGI was determined as 17.4 µM.
As to `CCOC1C(Br)Cn2c(=O)c3cc4ccccc4cc3c(=O)n2C1C` (stereo unspecified), the TGI was greater than 100 µM.
As to `O=C1NC(=S)S/C1=C/c1ccc2c(c1)OCO2`, the GI50 was greater than 100 µM and the TGI was greater than 100 µM.
Consider `CCCC1(CC(=O)O)OCCc2c1[nH]c1ccccc21` (stereo unspecified), for which the TGI is greater than 100 µM.
For `COc1ccc2nc3cc(Cl)ccc3c(Sc3ccc([N+](=O)[O-])cc3C)c2c1`, the TGI was greater than 100 µM.

The next experiment concerns HCT-15 colon. As to the kind of experiment: inhibition of tumour cell growth, NCI panel, 48 h.
`CCN1C(=O)c2ccc3c4c(ccc(c24)C1=O)C(=O)N(CCCNCc1ccccc1OC)C3=O`: the GI50 is 0.291 µM and the TGI turned out to be 1.07 µM.
As to `O=C(/C=C/c1ccccc1)Nc1ncc(Cc2ccccc2Cl)s1`, the GI50 was 0.237 µM and the TGI is greater than 100 µM.
Take `CN(c1ccc(NC(=O)Nc2c(Cl)cccc2Cl)cc1)c1ccnc(Nc2cccc(CS(C)(=O)=O)c2)n1`: the GI50 is 5.6 µM and the TGI was greater than 25 µM.
As to `CCCCCCCCCCCCCCCCCCOC[C@H](COP(=O)(O)O[C@H]1[C@H](O)[C@@H](O)[C@H](O)C[C@H]1O)OC`, the GI50 was 37.2 µM and 14.3 µM; the TGI was > 100 µM and 28.9 µM.
Take `CN(C)C/C=C/C(=O)Nc1ccc(C(=O)N[C@@]2(C)CCC[C@@H](Nc3ncc(Cl)c(-c4c[nH]c5ccccc45)n3)C2)nc1`: the GI50 is 0.0286 µM and the TGI was 1.05 µM.
Consider `CC(C)C(O)(C(C)C)C(C)C`, for which the TGI was greater than 100 µM.
Consider `COc1ccc2c(c1)C(=O)CCc1cc(OC)c(OC)c(OC)c1-2`, for which the GI50 was less than 0.01 µM and the TGI is greater than 100 µM.
As to `CCN(CC)CCNC(Cc1ccccc1)c1ccc(OCc2ccccc2)cc1` (stereo unspecified), the GI50 is 3.36 µM and the TGI was found to be 13 µM.
For `Cn1c(Cl)c(/C=C2/C(=O)Nc3ccccc32)c2ccccc21`, the GI50 is 0.16 µM and the TGI came to 11.9 µM.
For the compound `O=C1C(=O)c2ccccc2C(O)=C1C(C1=C(O)c2ccccc2C(=O)C1=O)c1ccc(Cl)cc1`, the TGI worked out at 32 µM.
For `C=C(C)[C@@H]1CC[C@]2(COCCCN)CC[C@]3(C)[C@H](CC[C@@H]4[C@@](C)(CCCNCCCN)[C@H](C(=C)C)CC[C@]43C)[C@@H]12`, the GI50 was 1.3 µM and the TGI stood at 2.63 µM.
`O=C(O)CSCCc1ccccc1` registered a TGI greater than 100 µM.
Take `CCOC1C(Br)Cn2c(=O)c3cc4ccccc4cc3c(=O)n2C1C` (stereo unspecified): the TGI is greater than 100 µM.
In turn, `O=NNc1ccc2ccccc2n1` displayed a TGI greater than 100 µM.
As to `O=C1NC(=S)S/C1=C/c1ccc2c(c1)OCO2`, the GI50 is greater than 100 µM and the TGI was greater than 100 µM.
Regarding `O=C(O)CCCc1ccc2ccc3ccccc3c2c1`, the TGI is greater than 100 µM.
For `CCCC1(CC(=O)O)OCCc2c1[nH]c1ccccc21` (stereo unspecified), the TGI is greater than 100 µM.
For `CN(C)Cc1cc(C(F)(F)F)ccc1C(O)(c1ccccc1)c1ccccc1`, the TGI was 28.6 µM.
`CSC(SC)(C(=O)O)c1cc(-c2c(Cl)cccc2Cl)no1` returned a TGI of 41.9 µM.
As to `COc1ccc2nc3cc(Cl)ccc3c(Sc3ccc([N+](=O)[O-])cc3C)c2c1`, the TGI was greater than 100 µM.

A further experiment deals with OVCAR-3 ovarian. The experiment can be described thus: inhibition of tumour cell growth, NCI panel, 48 h.
Turning to `CCN1C(=O)c2ccc3c4c(ccc(c24)C1=O)C(=O)N(CCCNCc1ccccc1OC)C3=O`, the GI50 was 0.335 µM and the TGI is 1.04 µM.
Take `O=C(/C=C/c1ccccc1)Nc1ncc(Cc2ccccc2Cl)s1`: the GI50 was 0.226 µM and the TGI was 0.63 µM.
As to `CN(c1ccc(NC(=O)Nc2c(Cl)cccc2Cl)cc1)c1ccnc(Nc2cccc(CS(C)(=O)=O)c2)n1`, the GI50 is 1.65 µM and the TGI turned out to be 5.2 µM.
For `CCCCCCCCCCCCCCCCCCOC[C@H](COP(=O)(O)O[C@H]1[C@H](O)[C@@H](O)[C@H](O)C[C@H]1O)OC`, the GI50 was > 100 µM and 16.9 µM; the TGI is > 100 µM and 34.9 µM.
In turn, `CC(C)C(O)(C(C)C)C(C)C` displayed a TGI greater than 100 µM.
For the compound `CCN(CC)CCNC(Cc1ccccc1)c1ccc(OCc2ccccc2)cc1` (stereo unspecified), the GI50 is 11.8 µM and the TGI was determined as 25.8 µM.
Consider `Cn1c(Cl)c(/C=C2/C(=O)Nc3ccccc32)c2ccccc21`, for which the GI50 is 0.204 µM and the TGI was 1.26 µM.
Compound `O=C1C(=O)c2ccccc2C(O)=C1C(C1=C(O)c2ccccc2C(=O)C1=O)c1ccc(Cl)cc1` had a TGI of 11.4 µM.
In the case of `C=C(C)[C@@H]1CC[C@]2(COCCCN)CC[C@]3(C)[C@H](CC[C@@H]4[C@@](C)(CCCNCCCN)[C@H](C(=C)C)CC[C@]43C)[C@@H]12`, the GI50 is 1.81 µM and the TGI was determined as 3.36 µM.
In the case of `O=C(O)CSCCc1ccccc1`, the TGI was greater than 100 µM.
For the compound `CCOC1C(Br)Cn2c(=O)c3cc4ccccc4cc3c(=O)n2C1C` (stereo unspecified), the TGI was greater than 100 µM.
